Measurements from US20260167972A1, “AMINO ACID DERIVATIVES AS NOVEL DELIVERY AGENTS FOR FUNCTIONAL DELIVERY OF OLIGONUCLEOTIDES” (University of Rochester, priority 2022, published 2026).

How the values were obtained:
[1] = test system: thyroid transcription factor-1 (TTF-1) mRNA expression in A549 lung carcinoma cells; experiment: TTF-1 knockdown determination by RT-qPCR; format: cell-based, human; parameters: knockdown (reduction) of TTF-1 mRNA: concentration or dose not given beside the values; conditions: for knockdown efficacy group: relative to Lipofectamine; for Relative TTF-1 mRNA Expression (Normalized to GAPDH) / knockdown (reduction) of TTF-1 mRNA: A549 cells, TTF-1 siRNA; for Relative TTF-1 mRNA Expression (Normalized to GAPDH): 4 h dosing then 48 h incubation; for knockdown (reduction) of TTF-1 mRNA: normalized to GAPDH
Source text: Finally, N-X-Phe derivatives achieved functional delivery of siRNA. To verify delivery of functional siRNA using N-X-Phe-DAP/siRNA particles, relative thyroid transcription factor-1 (TTF-1) mRNA expression normalized to GAPDH in A549 lung carcinoma cells was quantified against knockdown efficiencies with Lipofectamine as a control delivery agent (FIG. 6, Table 3). […] “Scrambled” is control siRNA delivered with Lipofectamine. TTF-1 is delivery of TTF-1 siRNA with Lipofectamine (n=5, *p≤0.05, **p≤0.01, ****p≤0.0001).
(§1) Sample Preparation for Cell-Based Experiments: For delivery analysis and functional knockdown, N-X-Phe-DAP derivatives (10 μL, 1 mM) or Lipofectamine 3000 (6 μL) was mixed with TTF-1 siRNA (Santa Cruz Biotechnology sc-36756, 6 μL, 10 μM) in Ultrapure™ DNase/RNase-Free Distilled Water (Invitrogen 10977015) to give a final volume of 100 μL. These mixtures were incubated for 30 minutes at room temperature, followed by dilution into 1×DMEM (Gibco 11965092, 1.9 mL). For cytotoxicity assays, N-X-Phe-DAP derivatives (10 μL, 1 mM) were diluted into 1×DMEM (Gibco 11965092, 1.9 mL).
TTF-1 Knockdown Determination: All knockdown experiments were performed in triplicate. A549 cells were seeded at a density of 1.05×10^5 cells/well in a 96-well plate (200 μL) and grown to 70-90% confluency. Cells were washed twice with 1×PBS (200 μL/well), N-X-Phe-DAP/siRNA samples were added (200 μL/well), and mixtures were incubated for 4 h at 37° C., 5% CO2. After 4 h, the media was removed, cells were washed with 1×PBS, wells were replenished with complete media containing 1×DMEM (Gibco 11965092), 10% fetal bovine serum (FBS, Invitrogen 26140087), and 1× antibiotic-antimycotic (Gibco 15240-062) and incubated an additional 48 h.
Cells were lysed and RNA was extracted using an Aurum Total RNA Mini Kit (Bio-Rad 7326820). In brief, cells were lysed with Lysis solution containing 1% β-mercaptoethanol (200 μL). Lysate was then mixed with 70% EtOH (200 μL) and processed using QIAshredder homogenizer columns (Qiagen 79656). Homogenate was then transferred to Aurum RNA binding columns, washed with Low Stringency Wash Solution, and incubated with diluted DNase I solution (80 μL) for 15 minutes at RT. Samples were then serially washed with High and Low Stringency Wash Solutions and RNA was eluded from the column with Ultrapure™ DNase/RNase-Free Distilled Water (Invitrogen 10977015, 80 μL). Recovered RNA was quantified on a Nanodrop One system and samples were diluted in Ultrapure™ DNase/RNase-Free Distilled Water (Invitrogen 10977015, 2 ng/μL). Relative TTF-1 knockdown was quantified by RT-qPCR
An iScript cDNA Synthesis Kit (Bio-Rad 1708891) was used for reverse transcription of extracted RNA samples. In brief, samples were prepared by combining 5× iScript Reaction Mix (4 μL), iScript Reverse Transcriptase (1 μL), extracted RNA (12.5 μL, 2 ng/μL), and Ultrapure™ DNase/RNase-Free Distilled Water (Invitrogen 10977015, 2.5 μL). Samples were incubated on a Bio-Rad Thermal Cycler using the following protocol: 5 min priming at 25° C., 20 min reverse transcription at 40° C., and 1 min reverse transcriptase inactivation at 95° C. Recovered cDNA was quantified on a Nanodrop One and samples were diluted in Ultrapure™ DNase/RNase-Free Distilled Water (Invitrogen 10977015, 50 ng/μL). Gene expression was quantified utilizing qPCR. A primer stock solution (750 nM, 267 μL, H2O) of TTF-1 (Santa Cruz Biotechnology, sc-36756-PR) or GAPDH (Santa Cruz Biotechnology, sc-35448-PR) primer pairs were prepared by dilution of Primer A (20 μL, 10 μM) and Primer B (20 μL, 10 μM) into Ultrapure™ DNase/RNase-Free Distilled Water (Invitrogen 10977015, 227 μL). Samples were prepared in triplicate by combining 2× iTaq Universal SYBR Green Super Mix (5 μL, Bio-Rad), TTF-1 or GAPDH primer stock (4 μL, 750 nM), and recovered cDNA (1 μL, 50 ng/μL) in sterile qPCR tubes. Quantitative Ct values were obtained by running samples on a Bio-Rad CFX96 Touch using the “PWRUP60” protocol. […]

[2] = test system: A549 lung adenocarcinoma cells; experiment: Cellular uptake of FITC-siRNA by fluorescence microscopy; format: cell-based, human; conditions: A549 cells dosed 4 hours; green fluorescence, FIG. 5
Description: The N-X-Phe-DAP derivatives facilitate functional delivery of siRNA. N-X-Phe-DAP derivatives (100 μM) were incubated with a fluorescently labelled siRNA (FITC-siRNA, 600 nM) for 30 minutes in the dark followed by dilution into DMEM. A549 lung carcinoma cells were then dosed with these solutions for 4 hours, after which N-X-Phe-DAP/siRNA cellular uptake was visualized by confocal microscopy to visual FITC-siRNA in fixed cells in which the nuclei had been stained with DAPI nuclear stain (FIG. 5). Translocation of siRNA with the N-X-Phe-DAP derivatives was compared with Lipofectamine by observing the presence of green fluorescence (FITC-siRNA) in the images.
as §1
N-X-Phe-DAP-siRNA Cellular Delivery Analysis A549 lung adenocarcinoma cells (ATCC #) were seeded at a density of 1.05×10^5 cells/well in a glass bottom 24-well plate (500 μL) and grown to 70-90% confluency. Cells were washed with 1× phosphate buffered saline (PBS, Gibco 14190144), samples were added (500 μL/well), and incubated for 4 h at 37° C., 5% C02. After 4 h, media was removed, cells were washed with 1×PBS, and fixed with 4% paraformaldehyde solution. After 10 min, cells were washed twice with 1×PBS and incubated with DAPI stain (1 μg/mL) in the dark. After 5 min, cells were washed three times with 1×DPBS and stored at −20° C. until imaging. A Nikon T1 epifluorescence microscope was used for fluorescent imaging. Images were collected at 40× magnification using NIS-Elements Viewer (Nikon) software. All images were processed in Adobe Photoshop by selecting “image” then “Adjustments” then “Levels”. In the pop-up window, “Channel” was selected followed by “Green” and Output levels were adjusted with an upper limit of 200. In the sample pop-up window under “Options” the “Enhance Per Channel Contrast” was selected under algorithms.

SMILES | knockdown efficacy group [1] | FITC-siRNA delivery compared with Lipofectamine [2] | Relative TTF-1 mRNA Expression (Normalized to GAPDH) [1] | knockdown (reduction) of TTF-1 mRNA [1]
CCCCCCC(=O)N[C@@H](Cc1ccccc1)C(=O)NCCCN [Hex-Phe-DAP] | ineffective knockdown (less effective than Lipofectamine) | improved siRNA delivery | – | –
NCCCNC(=O)[C@H](Cc1c(F)c(F)c(F)c(F)c1F)NC(=O)OCC1c2ccccc2-c2ccccc21 [Fmoc-F5-Phe-DAP] | effective knockdown (slightly improved or similar relative to Lipofectamine) | improved siRNA delivery | 38.6 ± 4.9 | ~61%
NCCCNC(=O)[C@H](Cc1cccc(F)c1)NC(=O)OCC1c2ccccc2-c2ccccc21 [Fmoc-3F-Phe-DAP] | – | on par with Lipofectamine | 51.8 ± 6.6 | ~48%
NCCCNC(=O)[C@H](Cc1ccccc1)NC(=O)Cc1cccc2ccccc12 [1-Nap-Phe-DAP] | highly effective knockdown (dramatically improved relative to Lipofectamine) | improved siRNA delivery | 13.8 ± 3.7 | 86%
NCCCNC(=O)[C@H](Cc1ccccc1)NC(=O)OCC1c2ccccc2-c2ccccc21 [Fmoc-Phe-DAP] | highly effective knockdown (dramatically improved relative to Lipofectamine) | improved siRNA delivery | 17.4 ± 2.1 | 83%
NCCCNC(=O)[C@H](Cc1ccccc1)NC(=O)CCCc1ccc2ccc3cccc4ccc1c2c34 [Pyr-Phe-DAP] | effective knockdown (slightly improved or similar relative to Lipofectamine) | improved siRNA delivery | 33.0 ± 2.2 | approximately 70%
NCCCNC(=O)[C@H](Cc1ccccc1)NC(=O)CC1c2ccccc2-c2ccccc21 [Fm-Phe-DAP] | effective knockdown (slightly improved or similar relative to Lipofectamine) | on par with Lipofectamine | 37.9 ± 8.3 | ~62%
NCCCNC(=O)[C@H](Cc1ccccc1)NC(=O)C1CCCCC1 [Cyc-Phe-DAP] | ineffective knockdown (less effective than Lipofectamine) | on par with Lipofectamine | – | –
NCCCNC(=O)[C@H](Cc1ccccc1)NC(=O)OCc1ccccc1 [Cbz-Phe-DAP] | effective knockdown (slightly improved or similar relative to Lipofectamine) | improved siRNA delivery | 30.9 ± 3.0 | approximately 70%
NCCCNC(=O)[C@H](Cc1ccccc1)NC(=O)Cc1ccc2ccccc2c1 [2-Nap-Phe-DAP] | highly effective knockdown (dramatically improved relative to Lipofectamine) | on par with Lipofectamine | 13.4 ± 1.4 | 87%
